≈ marks a conversion by molar mass, not a printed value. Like-named read-outs stand apart in the source and are kept apart here.
Legend:
mice = assay: Analgesic activity, acetic acid writhing; assay type: in vivo; settings: 30 min before acetic acid
Procedure: The prodrug compounds are administered either transdermally or orally. The parent compounds are administered orally. The number of writhing that occurred when mice are administered the acetic acid solution are counted, and the rate of inhibition based on the control group which was not pretreated with any test compounds is calculated. […] The A group is the control group.

[1] = Plasma levels after transdermal administration to hairless mice; assay type: in vivo; settings: for Peak plasma concentration of parent compound after prodrug compound / t, time to peak plasma level of parent compound after prodrug compound: transdermal, 20% in 1 mL isopropanol
Procedure: Tested compounds (20% solution or suspension in 1 mL isopropanol) are administered transdermally to the skin of intact hairless mice. The plasma levels of the parent compounds are determined by HPLC.

[2] = Solubility in water / aqueous solubility of HPPs and parent drugs; settings: for Solubility in water: product as prepared in Example 1
human skin tissue [3] = assay: In vitro penetration rate through human skin, modified Franz cells; settings: 20% solution in 0.2 M phosphate buffer pH 7.4, human skin, Franz cell
rats = assay: Antipyretic activity, E. coli suspension as pyrogen; assay type: in vivo; settings: in °C (unit assumed)
Procedure: Rats are administered with sterilized E. coli suspension as a pyrogen. Each group of rats are administered with a prodrug compounds or parent compounds at a dosage specified below. The prodrug compounds are administered either orally or transdermally. The parent compounds are administered orally.

Chinese white rabbits = assay: Malassezia-induced lesions similar to psoriasis; assay type: in vivo, rabbit; settings: 5% aqueous solution twice per day, 10 days after application
Source text: Heavy suspensions of Malassezia [Rosenberg, E. W., et al., Mycopathologia, 72, 147-154 (1980)] were applied to the shaved skin on the backs of the Chinese white rabbits (n=4×6) twice (at 7 am and 7 pm) per day for 2 weeks, lesions similar to psoriasis resulted.

C57/BL6 mice, MPTP = assay: MPTP Parkinson's disease mice: GABA and Glu in substantia nigra and striatum; settings: mouse, in vivo
Procedure: Group A mice were i.p. injected 0.4% sodium carboxymethylcellulos (15 ml/kg per day) for 7 days. Group B and C mice were i.p. injected N-methyl-4-phenyl-1,2,3,6-tetrahydropyridine (MPTP, 30 mg/kg per day) for 7 days. The mice were divided into 2 groups. […] All mice were killed after the last treatment and the brain tissues were quickly frozen at −80° C. […] The contents of GABA and Glu in the striatum and SN were shown by high performance amino acid auto-analyser.

[4] = Distribution of prodrug and metabolites in tissues after application to the back of killed rats; assay type: in vivo; settings: Wistar, rat, 50 mg/kg, 3 h after 50 mg/kg prodrug citric acid salt on the back of killed rat, 37° C.
Procedure: The mixture was centrifuged for 5 minutes at 16,000 rpm. The supernatant (2 ml) was collected and evaporated to dryness.

human skin tissue [5] = settings: pH 7.4
[6] = Plasma levels after transdermal administration to hairless mice; settings: mouse, in vivo, po
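Throughout, for LD50 of HPP: acute toxicity in rats expressed as LD50, determined for both prodrugs and their parent compounds.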
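Throughout, for LD50 of parent drug: acute toxicity in rats expressed as LD50, determined for both prodrugs and their parent compounds.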

**Q.** With `CC(=O)O.CCN(CC)CCOC(=O)Cc1ccccc1Nc1c(Cl)cccc1Cl` [diethylaminoethyl 2[(2,6-dichlorophenyl)amino]benzene acetate.AcOH] as the compound, how does the “% (rate of writhing inhibition)” value (mice; 10 mg/kg orally) read?
**A.** Its value is 64.6%.

**Q.** What about the No. of Writhing (mice; 10 mg/kg orally) of the same compound?
**A.** Its No. of Writhing is 12.1.

**Q.** And the “% (rate of writhing inhibition)” value (mice; 10 mg/kg transdermally)?
**A.** Its value is 69.9%.

**Q.** And the No. of Writhing (mice; 10 mg/kg transdermally)?
**A.** Its No. of Writhing is 10.3.

**Q.** And the “% (rate of writhing inhibition)” value (mice; 20 mg/kg orally)?
**A.** Its value is 73.1%.

**Q.** And the No. of Writhing (mice; 20 mg/kg orally)?
**A.** Its No. of Writhing is 9.2.

**Q.** What about the “% (rate of writhing inhibition)” value (mice; 20 mg/kg transdermally) of the same compound?
**A.** Its value is 74.3%.

**Q.** And the No. of Writhing (mice; 20 mg/kg transdermally)?
**A.** The No. of Writhing was 8.8.

**Q.** What about the “Peak plasma concentration of parent compound after prodrug compound” value ([1]; hairless mice) of the same compound?
**A.** The value was 2100 mg/L.

**Q.** And the “t, time to peak plasma level of parent compound after prodrug compound” value ([1]; hairless mice)?
**A.** Its value is 40 min.

**Q.** What about the “Solubility of HPP” value ([2]; in water) of the same compound?
**A.** Its value is >300 mg/mL.

**Q.** What about the Solubility in water [2] of the same compound?
**A.** Its Solubility in water is 400 mg/mL.

**Q.** And the “LD50 of HPP” value (rat; rat, in vivo)?
**A.** The value was 800 mg/kg.

**Q.** And the “In vitro penetration rate (apparent flux), prodrug compounds” value (human skin tissue [3])?
**A.** The value was 5000 μg/cm^2/h.

**Q.** And the “body temperature, t = 0 min” value (rats; 10 mg/kg orally)?
**A.** The value was 37.52 ± 0.07.

**Q.** What about the “body temperature, t = 90 min” value (rats; 10 mg/kg orally) of the same compound?
**A.** The value was 36.50 ± 0.06.

**Q.** What about the “body temperature, t = 180 min” value (rats; 10 mg/kg orally) of the same compound?
**A.** Its value is 36.60 ± 0.05.

**Q.** And the “body temperature, t = 270 min” value (rats; 10 mg/kg orally)?
**A.** Its value is 36.55 ± 0.08.

**Q.** What about the “body temperature, t = 0 min” value (rats; 10 mg/kg transdermally) of the same compound?
**A.** The value was 37.58 ± 0.06.

**Q.** What about the “body temperature, t = 90 min” value (rats; 10 mg/kg transdermally) of the same compound?
**A.** The value was 36.30 ± 0.06.

**Q.** And the “body temperature, t = 180 min” value (rats; 10 mg/kg transdermally)?
**A.** The value was 36.35 ± 0.08.

**Q.** And the “body temperature, t = 270 min” value (rats; 10 mg/kg transdermally)?
**A.** The value was 36.31 ± 0.07.

**Q.** What about the “body temperature, t = 0 min” value (rats; 20 mg/kg orally) of the same compound?
**A.** Its value is 37.54 ± 0.08.

**Q.** What about the “body temperature, t = 90 min” value (rats; 20 mg/kg orally) of the same compound?
**A.** Its value is 36.30 ± 0.05.

**Q.** What about the “body temperature, t = 180 min” value (rats; 20 mg/kg orally) of the same compound?
**A.** The value was 36.35 ± 0.07.

**Q.** And the “body temperature, t = 270 min” value (rats; 20 mg/kg orally)?
**A.** The value was 36.38 ± 0.08.

**Q.** And the “body temperature, t = 0 min” value (rats; 20 mg/kg transdermally)?
**A.** Its value is 37.59 ± 0.05.

**Q.** What about the “body temperature, t = 90 min” value (rats; 20 mg/kg transdermally) of the same compound?
**A.** The value was 36.25 ± 0.05.

**Q.** What about the “body temperature, t = 180 min” value (rats; 20 mg/kg transdermally) of the same compound?
**A.** The value was 36.30 ± 0.07.

**Q.** And the “body temperature, t = 270 min” value (rats; 20 mg/kg transdermally)?
**A.** Its value is 36.20 ± 0.05.

**Q.** What does the source list for `CC(=O)O.CCN(CC)CCOC(=O)Cc1cc(C)c(C(=O)c2ccc(Cl)cc2)n1C` [diethylaminoethyl 5-(4-Chlorobenzoyl)-1,4-dimethyl-1H-pyrrole-2-acetate.AcOH]?
**A.** % (rate of writhing inhibition) (mice; 100 mg/kg transdermally): 55%; No. of Writhing (mice; 100 mg/kg transdermally): 15.6; Peak plasma concentration of parent compound after prodrug compound ([1]; hairless mice): 20 mg/L; t, time to peak plasma level of parent compound after prodrug compound ([1]; hairless mice): 50 min; lesions similar to psoriasis (Chinese white rabbits): the lesions were resolved; LD50 of HPP (rat; rat, in vivo): 200 mg/kg; In vitro penetration rate (apparent flux), prodrug compounds (human skin tissue [3]): 1200 μg/cm^2/h; body temperature, t = 0 min (rats; 100 mg/kg transdermally): 37.21 ± 0.07; body temperature, t = 90 min (rats; 100 mg/kg transdermally): 36.82 ± 0.06; body temperature, t = 180 min (rats; 100 mg/kg transdermally): 36.70 ± 0.05; body temperature, t = 270 min (rats; 100 mg/kg transdermally): 36.70 ± 0.08

**Q.** What does the source list for `CC(=O)O.CCN(CC)CCOC(=O)C(C)c1ccc2c(c1)[nH]c1ccc(Cl)cc12` (stereo not drawn) [diethylaminoethyl 6-chloro-α-methyl-9H-carbazole-2-acetate.AcOH]?
**A.** % (rate of writhing inhibition) (mice; 100 mg/kg transdermally): 59%; No. of Writhing (mice; 100 mg/kg transdermally): 14.2; Peak plasma concentration of parent compound after prodrug compound ([1]; hairless mice): 2000 mg/L; t, time to peak plasma level of parent compound after prodrug compound ([1]; hairless mice): 50 min; Solubility of HPP ([2]; medium not given): >350 mg/mL; Solubility in water [2]: 400 mg/mL; LD50 of HPP (rat; rats): 700 mg/kg; In vitro penetration rate (apparent flux), prodrug compounds (human skin tissue [3]): 4000 μg/cm^2/h; body temperature, t = 0 min (rats; 100 mg/kg transdermally): 37.28 ± 0.06; body temperature, t = 90 min (rats; 100 mg/kg transdermally): 36.68 ± 0.05; body temperature, t = 180 min (rats; 100 mg/kg transdermally): 36.62 ± 0.08; body temperature, t = 270 min (rats; 100 mg/kg transdermally): 36.58 ± 0.07

**Q.** For `NC(=O)C[S+]([O-])C(c1ccccc1)c1ccccc1` (stereo not drawn) [modafinil, reference compound], which “increase of nigrostriatal Glu release induced by MPTP” value (C57/BL6 mice, MPTP) is on record?
**A.** The value was “did not change”.

**Q.** With `O=C(O)c1ccccc1O` [salicylic acid] as the compound, how does the concentration at 3 h ([4]; read-out: amount in Bone) read?
**A.** Its concentration at 3 h is 35000 ± 6000 ng/g.

**Q.** And the concentration at 3 h ([4]; read-out: amount in Brain)?
**A.** The concentration at 3 h was 30000 ± 6000 ng/g.

**Q.** And the concentration at 3 h ([4]; read-out: amount in Liver)?
**A.** The concentration at 3 h was 45000 ± 8000 ng/g.

**Q.** What about the concentration at 3 h ([4]; read-out: amount in Plasma) of the same compound?
**A.** The concentration at 3 h was 65 ± 10 µg/mL.

**Q.** And the “t, time to peak plasma level after parent compound” value ([1]; parent compound administered (time when taken orally))?
**A.** Its value is 1 to 2 h.

**Q.** And the “Peak plasma concentration after parent compound” value ([1]; parent compound administered, hairless mice)?
**A.** Its value is 0.1 mg/L.

**Q.** And the solubility ([2]; water)?
**A.** The solubility was 0.1 mg/mL (≈ 724 µM).

**Q.** And the “In vitro penetration rate (apparent flux), parent compounds” value (human skin tissue [5]; human, 20 %)?
**A.** Its value is <1 μg/cm^2/h.

**Q.** With “salicylsalicylic acid [Salsalate, reference compound]” as the compound, how does the “Peak plasma concentration after parent compound” value ([1]; mouse, in vivo) read?
**A.** Its value is 0.1 mg/L.

**Q.** And the “t, time to peak plasma level after parent compound” value [6]?
**A.** Its value is 1 to 2 h.

**Q.** And the “In vitro penetration rate (apparent flux), parent compounds” value (human skin tissue [5])?
**A.** Its value is <1 μg/cm^2/h.

**Q.** What about the “LD50 of parent drug” value (rat; rats) of the same compound?
**A.** Its value is 1500 mg/kg.

— patent publication US20210353579A1, “HIGH PENETRATION COMPOSITIONS AND USES THEREOF” (Techfields Pharma Co., Ltd., priority 2006, published 2021)
